The assay relates to oral mucositis in a hamster model following irradiation. In words: Hamster model of radiation-induced oral mucositis (mucositis score). It counts as in vivo, Golden Syrian hamsters.
[1] abbreviates: solution containing 3.5 mg/ml, 0.5 ml into left cheek pouch three times per day, Day 0 to Day 19, single radiation dose 35-38 Gy.
Where [2] appears, read: solution containing 17.5 mg/ml, 0.5 ml into left cheek pouch three times per day, Day 0 to Day 19, single radiation dose 35-38 Gy.

Source text: Briefly, male Golden Syrian hamsters (Charles River Laboratories), aged 5 to 6 weeks, with body weights of approximately 90 g at project commencement, were used. Animals were individually numbered using an ear punch and housed in small groups of approximately 6 animals per cage. Animals were acclimatized for at least one week prior to project commencement. During this period, the animals were observed daily in order to reject animals that presented in poor condition. Animals were fed with a standard hamster chow and water ad libitum.
Mucositis was induced using an acute radiation protocol. A single dose of radiation (35-38 Gy/dose) was administered to all animals on Day 0. Radiation was generated with a 250 kilovolt potential (15 mA) source at a focal distance of 50 cm, hardened with a 0.35 mm Cu filtration system. […] Prior to irradiation, animals were anesthetized with an intraperitoneal injection of sodium pentobarbital (80 mg/kg). The left buccal pouch was everted, fixed and isolated using a lead shield.
All animals were dosed with test material three times per day. A needleless tuberculin syringe containing 0.5 ml of the test compound was inserted into the left cheek pouch and the drug deposited into the pouch. Dosing began on Day 0 and continued until Day 19.
The mucositis score, weight change and survival were measured as outcomes in this study. For the evaluation of mucositis, the animals were anesthetized with inhalation anesthetics, and the left pouch everted. Mucositis was scored visually by comparison to a validated photographic scale, ranging from 0 for normal to 5 for severe ulceration (clinical scoring). In descriptive terms, this scale is defined as follows:
A score of 1-2 is considered to represent a mild stage of the disease, whereas a score of 3-5 is considered to indicate moderate to severe mucositis. Following visual scoring, a photograph was taken of each animal's mucosa using a standardized technique. At the conclusion of the experiment, all films were developed and the photographs randomly numbered. At least two independent trained observers graded the photographs in blinded fashion using the above-described scale (blinded scoring).

In the case of `N[C@@H](CCC(=O)N[C@@H](CS)C(=O)NCC(=O)O)C(=O)O.[Bi]` [bismuth glutathione, Bismuth Glutathione], the “improvement in mucositis scores (time with score of three or higher)” value (from here on “improvement in mucositis scores”) (hamster, in vivo) was “showed improvement in their mucositis scores”.
Regarding Bismuth Ascorbate, the “improvement in mucositis scores” value (solution containing 1.75 mg/ml, 0.5 ml into left cheek pouch three times per day, Day 0 to Day 19, single radiation dose 35-38 Gy) is listed as “showed improvement in their mucositis scores”.
For the compound `O=C([O-])CC(O)(CC(=O)[O-])C(=O)[O-].[Bi+3]` [bismuth citrate], under setting [1], the “improvement in mucositis scores” value was “showed improvement in their mucositis scores”.
Regarding bismuth subgallate, the “improvement in mucositis scores” value under setting [2] is “did not show a statistically significant improvement”.
On the same count and under the same terms, in the case of `O=C([O-])[C@H]([O-])[C@@H]([O-])C(=O)[O-].[Bi+3].[K+]` [bismuth potassium tartrate] it was “did not show a statistically significant improvement”.
For `O=C([O-])c1ccccc1.O=C([O-])c1ccccc1.O=C([O-])c1ccccc1.[Bi+3]` [bismuth benzoate, Bismuth Benzoate], the “improvement in mucositis scores” value under setting [1] is recorded as “showed improvement in their mucositis scores”.
For bismuth (III) oxide, the “improvement in mucositis scores” value under setting [2] is given as “did not show a statistically significant improvement”.
Still for that read-out and setting: the same measure for `O=[N+]([O-])[O-].O=[N+]([O-])[O-].O=[N+]([O-])[O-].O=[N+]([O-])[O-].[Bi+3].[Bi+3].[Bi+3].[Bi+3].[Bi+3].[O-2].[OH-].[OH-].[OH-].[OH-].[OH-].[OH-].[OH-].[OH-].[OH-]` [bismuth subnitrate]: “did not show a statistically significant improvement”; for `O=C([O-])[O-].[Bi+3].[Bi+3].[O-2].[O-2]` [bismuth subcarbonate]: “did not show a statistically significant improvement”.
Turning to `O=C([O-])c1ccccc1[O-].[Bi+3].[OH-]` [bismuth salicylate basic], the “improvement in mucositis scores” value under setting [1] is “showed improvement in their mucositis scores”.
